Assay results: ChEMBL document CHEMBL5241112, “Insights into the recent progress in the medicinal chemistry of pyranopyrimidine analogs” (RSC Med Chem, 2022)
pIC50: −log10 of the molar value. ≈ marks a conversion by molar mass, not a printed value.

Columns and labels:
[1] = biological target: NAD-dependent protein deacetylase sirtuin-1 (Homo sapiens, UniProt Q96EB6); test: Inhibition of recombinant human SIRT1 expressed in Escherichia coli using Fluor de Lys-SIRT1/2 substrate in presence of NAD+ by fluorescence microplate reader analysis
HONE1 cell line = test: Anticancer activity against human HONE1 cell line assessed as cell growth inhibition incubated for 24 hrs; type: functional, cell-based; details: HONE1, 24 h
HepG2 [2] = test: Anticancer activity against human HepG2 cells assessed as cell growth inhibition incubated for 24 hrs; type: functional, cell-based; details: HepG2, 24 h
WI-38 = test: Cytotoxicity against human WI-38 cells assessed as lethality incubated for 24 hrs; type: toxicity, cell-based; details: wi-38, 24 h
NUGC = test: Anticancer activity against human NUGC cells assessed as cell growth inhibition incubated for 24 hrs; type: functional, cell-based
DLD-1 = test: Anticancer activity against human DLD-1 cells assessed as cell growth inhibition incubated for 24 hrs; type: functional, cell-based; details: DLD-1, 24 h
MCF7 [3] = test: Anticancer activity against human MCF7 cells assessed as cell growth inhibition incubated for 24 hrs; type: functional, cell-based; details: MCF7, 24 h
[4] = Cytotoxicity against human WI-38 cells assessed as cell growth inhibition incubated for 24 hrs; type: toxicity, cell-based
Candida albicans [5] = test: Antifungal activity against Candida albicans assessed as inhibition of fungal growth by microdilution method; type: functional
[6] = Cytotoxicity against African green monkey Vero cells assessed as reduction in cell viability by MTT assay; type: toxicity, cell-based; details: African green monkey (Chlorocebus sabaeus)
Enterobacter cloacae [7] = test: Antibacterial activity against Enterobacter cloacae assessed as minimum bactericidal concentration by microdilution method; type: functional
Aspergillus niger [8] = test: […] activity against Aspergillus niger assessed as […] by microdilution method; type: functional
Caco-2 = test: Anticancer activity against human Caco-2 cells assessed as reduction in cell viability by MTT assay; type: functional, cell-based
Enterobacter cloacae [9] = test: Antibacterial activity against Enterobacter cloacae assessed as inhibition of bacterial growth by microdilution method; type: functional
Candida albicans [10] = test: […] activity against Candida albicans assessed as […] by microdilution method; type: functional
Enterococcus faecalis [11] = test: Antibacterial activity against […] assessed as minimum bactericidal concentration by microdilution method; type: functional
Enterobacter cloacae [12] = test: Antibacterial activity against Enterobacter cloacae assessed as inhibition of bacterial growth at MIC by microdilution method; type: functional
Bacillus pumilus [13] = test: Antibacterial activity against Bacillus pumilus assessed as minimum bactericidal concentration by microdilution method; type: functional
Bacillus pumilus [14] = test: Antibacterial activity against Bacillus pumilus assessed as inhibition of bacterial growth at MIC by microdilution method; type: functional
Enterococcus faecalis [15] = test: Antibacterial activity against […] assessed as inhibition of bacterial growth at MIC by microdilution method; type: functional
Bacillus pumilus [16] = test: Antibacterial activity against Bacillus pumilus assessed as inhibition of bacterial growth by microdilution method; type: functional
Candida albicans [17] = test: Antifungal activity against Candida albicans assessed as inhibition of fungal growth at MIC by microdilution method; type: functional
Escherichia coli = test: Antibacterial activity against Escherichia coli assessed as inhibition of bacterial growth by microdilution method; type: functional
Enterococcus faecalis [18] = test: Antibacterial activity against […] assessed as inhibition of bacterial growth by microdilution method; type: functional
Aspergillus niger [19] = test: Antifungal activity against Aspergillus niger assessed as inhibition of fungal growth at MIC by microdilution method; type: functional
Aspergillus niger [20] = test: Antifungal activity against Aspergillus niger assessed as inhibition of fungal growth by microdilution method; type: functional
A549 = test: Anticancer activity against human A549 cells assessed as reduction in cell viability incubated for 24 hrs by MTT assay; type: functional, cell-based; details: A549, 24 h
HepG2 [21] = test: Anticancer activity against human HepG2 cells assessed as reduction in cell viability incubated for 24 hrs by MTT assay; type: functional, cell-based; details: HepG2, 24 h
HA22T cell line = test: Anticancer activity against human HA22T cells assessed as cell growth inhibition incubated for 24 hrs; type: functional, cell-based
MCF7 [22] = test: cells; type: functional, cell-based; details: Homo sapiens, MCF7, 96 h
HCT-116 = test: Anticancer activity against human HCT-116 cells assessed as reduction in cell viability incubated for 96 hrs by MTT assay; type: functional, cell-based; details: HCT-116, 96 h
[23] = biological target: Poly [ADP-ribose] polymerase 1 (Homo sapiens, UniProt P09874); test: Inhibition of PARP1 (unknown origin) incubated for 1 hrs by colorimetric analysis
MCF7 [24] = test: Anticancer activity against human MCF7 cells assessed as reduction in cell viability incubated for 24 hrs by MTT assay; type: functional, cell-based; details: MCF7, 24 h
SK-OV-3 = test: Anticancer activity against human SK-OV-3 cells assessed as reduction in cell viability incubated for 24 hrs by MTT assay; type: functional, cell-based; details: SK-OV-3, 24 h
U-937 = test: Induction of apoptosis in human U-937 cells assessed as total apoptotic cells at 50 uM incubated for 50 hrs by FACS analysis; type: functional

Chain of Poly [ADP-ribose] polymerase 1 (P09874 whole entry): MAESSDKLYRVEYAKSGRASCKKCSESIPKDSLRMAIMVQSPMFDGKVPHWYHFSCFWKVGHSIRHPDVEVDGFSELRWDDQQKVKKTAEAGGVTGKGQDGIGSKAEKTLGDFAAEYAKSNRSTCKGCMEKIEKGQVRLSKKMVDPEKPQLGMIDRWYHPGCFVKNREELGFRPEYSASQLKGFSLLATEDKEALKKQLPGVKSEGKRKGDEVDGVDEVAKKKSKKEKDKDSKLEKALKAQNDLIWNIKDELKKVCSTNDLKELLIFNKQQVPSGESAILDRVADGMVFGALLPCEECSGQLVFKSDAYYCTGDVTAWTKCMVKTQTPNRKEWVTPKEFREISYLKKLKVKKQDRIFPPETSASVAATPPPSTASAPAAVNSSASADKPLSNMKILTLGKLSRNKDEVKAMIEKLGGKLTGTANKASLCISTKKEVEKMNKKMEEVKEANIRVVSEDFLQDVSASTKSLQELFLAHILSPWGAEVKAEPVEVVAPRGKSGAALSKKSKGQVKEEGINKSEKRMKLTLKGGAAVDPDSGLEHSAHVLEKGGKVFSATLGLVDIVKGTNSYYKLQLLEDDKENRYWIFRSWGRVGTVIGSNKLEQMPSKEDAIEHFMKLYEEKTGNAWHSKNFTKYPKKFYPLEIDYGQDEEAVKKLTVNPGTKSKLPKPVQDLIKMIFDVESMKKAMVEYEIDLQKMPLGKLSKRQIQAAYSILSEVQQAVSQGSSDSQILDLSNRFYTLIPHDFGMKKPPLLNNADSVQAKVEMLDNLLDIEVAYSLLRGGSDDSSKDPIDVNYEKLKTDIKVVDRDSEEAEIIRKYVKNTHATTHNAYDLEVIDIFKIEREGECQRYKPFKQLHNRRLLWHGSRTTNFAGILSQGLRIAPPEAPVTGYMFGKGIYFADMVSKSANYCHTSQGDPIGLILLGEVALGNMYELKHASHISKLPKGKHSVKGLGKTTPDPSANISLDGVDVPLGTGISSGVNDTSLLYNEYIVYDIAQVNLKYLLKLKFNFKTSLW
Chain of NAD-dependent protein deacetylase sirtuin-1 (Q96EB6 whole entry): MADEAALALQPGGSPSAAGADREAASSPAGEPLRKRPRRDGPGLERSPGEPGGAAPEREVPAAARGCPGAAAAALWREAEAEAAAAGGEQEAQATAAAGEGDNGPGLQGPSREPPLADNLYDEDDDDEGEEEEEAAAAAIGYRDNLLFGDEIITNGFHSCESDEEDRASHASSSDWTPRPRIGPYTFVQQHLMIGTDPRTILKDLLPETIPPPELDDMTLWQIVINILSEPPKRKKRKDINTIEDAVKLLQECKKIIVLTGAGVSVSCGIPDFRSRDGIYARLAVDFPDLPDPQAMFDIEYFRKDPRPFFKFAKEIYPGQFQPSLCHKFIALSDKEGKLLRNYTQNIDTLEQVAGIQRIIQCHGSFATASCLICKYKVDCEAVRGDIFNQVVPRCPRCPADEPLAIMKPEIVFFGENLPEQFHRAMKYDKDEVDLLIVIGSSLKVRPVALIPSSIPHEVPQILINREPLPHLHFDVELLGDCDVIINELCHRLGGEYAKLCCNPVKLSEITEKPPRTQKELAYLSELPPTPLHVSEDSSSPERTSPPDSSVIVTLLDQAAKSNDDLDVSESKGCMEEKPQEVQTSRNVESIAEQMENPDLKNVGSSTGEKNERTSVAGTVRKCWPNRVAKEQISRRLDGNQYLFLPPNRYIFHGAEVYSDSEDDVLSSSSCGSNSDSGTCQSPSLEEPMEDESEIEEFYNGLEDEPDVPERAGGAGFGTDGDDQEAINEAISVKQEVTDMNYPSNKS

O=C1N=C2Oc3ccccc3CC2C(=O)N1c1ccccc1 (stereo unspecified)
pIC50 [1]: 5.38

N#CC1=C(N)C2C(=NC(NNc3ccccc3)=NC2c2ccc(Cl)cc2)OC1=O (stereo unspecified)
pIC50 (HONE1 cell line): 6.27
pIC50 (HepG2 [2]): 6.28
LC50 (WI-38): 18.38 µg/mL (≈ 45.2 µM)
pIC50 (NUGC): 7.26
pIC50 (DLD-1): 6.84
pIC50 (MCF7 [3]): 6.55
IC50 at 24 h [4]: 222 nM

COc1ccc(N2C(=O)C3C(c4ccccc4)C(C#N)=C(N)OC3N(c3ccc(OC)cc3)C2=S)cc1 (stereo unspecified)
MIC (Candida albicans [5]): 31.2 µg/mL
IC50 [6]: 138 µg/mL (≈ 269 µM)
MBC (Enterobacter cloacae [7]): 15.6 µg/mL (≈ 30.4 µM)
MBC (Aspergillus niger [8]): 125 µg/mL (≈ 244 µM)
IC50 (Caco-2): 65.9 µg/mL (≈ 129 µM)
MIC (Enterobacter cloacae [9]): 31.2 µg/mL (≈ 60.9 µM)
MBC (Candida albicans [10]): 125 µg/mL (≈ 244 µM)
MBC (Enterococcus faecalis [11]): 31.3 µg/mL (≈ 61.1 µM)
inhibition (INH) (Enterobacter cloacae [12]): 50.5%
MBC (Bacillus pumilus [13]): 62.5 µg/mL (≈ 122 µM)
inhibition (INH) (Bacillus pumilus [14]): 51.3%
inhibition (INH) (Enterococcus faecalis [15]): 78.6%
MIC (Bacillus pumilus [16]): 15.6 µg/mL (≈ 30.4 µM)
inhibition (INH) (Candida albicans [17]): 85.5%
MIC (Escherichia coli): 3.91 µg/mL (≈ 7.63 µM)
MIC (Enterococcus faecalis [18]): 7.81 µg/mL (≈ 15.2 µM)
inhibition (INH) (Aspergillus niger [19]): 88.3%
MIC (Aspergillus niger [20]): 62.5 µg/mL

CCCCCCCCn1cc(Cn2c(C)nc3c(c2=O)C(c2ccccc2)C(C(=O)OCC)=C(C)O3)nn1 (stereo unspecified)
pIC50 (A549): 5.44
pIC50 (HepG2 [21]): 4.16

N#CC1=C(N)C2C(=NC(NN)=NC2c2ccc(Cl)cc2)OC1=O (stereo unspecified)
pIC50 (HONE1 cell line): 6.70
pIC50 (HepG2 [2]): 6.58
pIC50 (NUGC): 6.48
pIC50 (DLD-1): 6.22
pIC50 (MCF7 [3]): 6.46
pIC50 (HA22T cell line): 6.55

Nc1cc(-c2ccc([N+](=O)[O-])cc2)nc2c1C(c1cccs1)c1c([nH]c(=O)[nH]c1=O)O2 (stereo unspecified)
pIC50 (MCF7 [22]): 6.18
pIC50 (HCT-116): 5.56
pIC50 [23]: 7.80

CCOC(=O)C1=C(C)Oc2nc(C)n(Cc3cn(-c4ccc([N+](=O)[O-])cc4)nn3)c(=O)c2C1c1ccccc1 (stereo unspecified)
pIC50 (A549): 6.16
pIC50 (MCF7 [24]): 4.15
pIC50 (SK-OV-3): 4.02

O=c1nc2oc3ccc4ccccc4c3cc-2c(=O)n1-c1ccccc1
Activity (U-937): 28.4%
